From article PMC4157788, “A Small Library of Synthetic Di-Substituted 1, 4-Naphthoquinones Induces ROS-Mediated Cell Death in Murine Fibroblasts” (PLoS ONE, 2014) come the findings set out here.

The subject of assay [1] is murine fibroblast cell line (L929). As to the kind of experiment: MTT viability assay. Type of assay: cell-based. The settings on record: L929 cells; for Toxicity group: 48 hrs, MTT, Group I no difference from DMSO, Group II dose-responsive inhibition, Group III >50% inhibition at the lowest concentration; for IC50: Mus musculus, read-out: IC50 (concentration of compound that induces 50% inhibition of survival); for IC50 / IC50 (concentration of compound that induces 50% inhibition of survival): MTT assay, 48 hrs incubation, doubling dilutions. As for the experimental part: The MTT (3-(4, 5-dimethylthiazol-2-yl)-2, 5-diphenyl tetrazolium bromide) viability assays were carried out as per manufacturers' instructions (Sigma). The L929 cells were plated at 50,000 cells per well in a 96-well flat-bottom plate (Becton-Dickinson Labware, Franklin Lakes, NJ). The cells were cultured with decreasing concentrations of the compounds (in duplicate), beginning at 0.50 mg/ml and decreasing by half over eleven additional dilutions. As controls, cells remained untreated (media alone) or were treated with equivalent dilutions of dimethylsulfoxide (DMSO, vehicle control) (Sigma). Following a 48 h incubation, the MTT reagent was added at 10% of the total volume per well. Following a 4 h incubation, the formed crystals were solubilized by removing approximately ¾ of the supernatant and adding 50 µl of solvent (10% Triton × and 1% 12 N HCl in isopropanol) (Sigma). All wells were vigorously pipetted (without forming bubbles) to help dissolve the crystals. The plates were then read in a 96-well plate spectrophotometer at 570 nm.
(In general: Formazan colour is commonly taken as a measure of viable cells.)

Assay [2] deals with L929 cells. As to the kind of experiment: Detection of reactive oxygen species (ROS) by DHCF-DA. Type of assay: cell-based, murine. The settings on record: compound at IC50, 24 hrs, fluorometric assay. Here is the method: Cells were plated at 50,000 cells per well in 96-well plates, protected or unprotected by 10 µM ascorbic acid. Following a 4 h incubation period, the cells were then treated with the indicated compounds at the IC50 or with H2O2 as a positive control. Twenty-four hours later, the plates were centrifuged and the supernatants were collected. The adherent cells were treated with 20 µL of 0.25% trypsin (Invitrogen) for 2 min. The cells were then removed and transferred to black-walled 96-well plates to prevent bleeding of fluorescence between sample wells. Dichlorofluorescein-Diacetate (10 µM) (Invitrogen - Molecular Probes), was then added to each well. The plates were then immediately read on a fluorescent plate reader using excitation wavelength of 485 nm and emission wavelength of 538 nm. Fluorescence was determined every 10 min over a 320 min. period.

Assay [3] deals with L929 cells. As to the kind of experiment: Catalase and superoxide dismutase (SOD) protection assay (MTT viability). Type of assay: cell-based, murine. As to conditions: 48 hr; for Protection of compound-treated cells by SOD (viability): compound at IC50, SOD 0.5 mg/ml; for Protection of compound-treated cells by combination of catalase and SOD (viability): compound at IC50, catalase 1 mg/ml + SOD 0.5 mg/ml; for Protection of compound-treated cells by catalase (viability): compound at IC50, catalase 1 mg/ml. As for the experimental part: L929 cells were plated at 50,000 cells/well in a 96-well flat-bottom plate. Catalase (1 mg/ml), SOD (0.5 mg/ml), or combinations of the two were added to the cells. The cells were also treated with the indicated compounds at a concentration that inhibited 50% of cellular viability or with media or DMSO as controls. Following a 48 h incubation period, cellular viability was assessed as described above (MTT assay).

The test system of assay [4] is L929 cells. Put plainly: Light microscopy of compound-treated cells (morphology). It counts as cell-based, murine. As to conditions: 24 hr, compound at IC50 (H2O2 600 µM), light microscopy 40X. As for the experimental part: The cells were cultured for 24 h at 37°C, 5% CO2. […] Digital images were captured using the AxioCam HR digital camera and were processed with Axiovision Software, Version 4.1.

Assay [5] has as its system L929 cells. As to the kind of experiment: Detection of mitochondrial membrane depolarization (DePsipher, flow cytometry). Type of assay: cell-based, murine. The settings on record: compound at IC50, DePsipher. Here is the method:
L929 cells (5×10^4 cells/well) were cultured in 12-well plates for 48 h in the presence of medium, DMSO, camptothecin (4 µM, positive control) or compound (IC50). The cells were then washed in FACS buffer resuspended in 100 µl of buffer. DePsipher (5, 5′6, 6′-tetrachloro-1, 1′, 3, 3′-tetraethylbenzimidazolylcarbocyanine iodide) (5 µl per sample) (Trevigen, Inc., Gaithersburg, MD) was then added. The cells were incubated at room temp., in the dark for a minimum of 15 min. The cells were assayed within the hour by flow cytometry. 10,000 events per sample were collected and analyzed by EXPO32 software.

For assay [6], the system named is L929 cells. Put plainly: Flow cytometry assessment of apoptosis (Annexin V-FITC / propidium iodide). As to conditions: 48 hrs, IC50 (lowest concentration tested for highly cytotoxic compounds), versus medium alone. Type of assay: cell-based, murine. Here is the method: The cells were then washed in FACS buffer (phosphate buffered saline +2% fetal bovine serum), resuspended in 50 µl of buffer and then incubated with 30% normal mouse serum (Sigma) to prevent non-specific staining, for 15 min. at room temperature. The cells were then treated with 5 µl of FITC-conjugated annexin V (1 mg/ml stock) and 2 µl of propidium iodide (5 mg/ml stock). The cells were then mixed gently and incubated at room temperature for 15 minutes in the dark followed by an analysis by flow cytometry within the hour.

The next assay relates to caspase 3 in L929 cells. As to the kind of experiment: Detection of active caspase-3 (colorimetric DEVD-pNA assay). It counts as cell-based, murine. As to conditions: 24 h treatment. Here is the method:
The assay was performed as per the manufacturers' instructions (BioSource International, Camarillo, CA). The L929 cells were plated at 3×10^6 cells per well in 6-well plates. The cells were then treated with the indicated compounds for 24 h. After treatment with the compounds, the cells were centrifuged, washed twice with 1× PBS, were re-suspended in 50 µL of chilled Cell Lysis Buffer and were incubated for 10 min. on ice. The samples were then centrifuged and the cytosolic extracts were then transferred to 96-well flat-bottom plates. Reaction buffer (5 µL of 1.0 M DTT to 500 µL of 2× Reaction buffer), made just prior to use, and was added to each well. DEVD-pNA substrate (5 µL) was then added to each well and the samples were incubated in the dark for an additional 2 h. The plates were then read on a spectrophotometer at a wavelength of 405 nm.

The subject of assay [7] is L929 cells. Put plainly: Ascorbic acid protection assay (MTT viability). The settings on record: L929 cells pre-loaded for 4 h with 10 µM ascorbic acid, compound at IC50, 48 hrs. Type of assay: cell-based, murine. As for the experimental part: […] The cells were then thoroughly washed with Hank's Balanced Salt Solution (HBSS (Invitrogen) and the MTT viability assay was conducted as described above.

Read-outs that look alike come from different tables or passages of the source. A value given as a limit tells only on which side of the number the result lay.

For `CC1=CC(=O)c2c(O)cccc2C1=O` [Compound 5, 2-methyl-5-hydroxy-1,4-napthoquinone, reference compound], in assay [1], the Toxicity group entry is reported as “Group III High toxicity” and the IC50 was < 1 µg/mL. Besides, the IC50 in assay [1] (same value converted to µM) is < 5.3 µM. Besides, the “Formation of intracellular reactive oxygen species (ROS)” value (shortened to “Formation”) with L929 cells [2] is given as “induced levels of ROS equal to that induced by H2O2”. In the assay on L929 cells [3], the “Protection of compound-treated cells by SOD (viability)” value is recorded as “did not protect”; the “Protection of compound-treated cells by combination of catalase and SOD (viability)” value is given as “did not protect”; the “Protection of compound-treated cells by catalase (viability)” value is “did not protect”. The “Effect on cellular morphology” value in the assay with L929 cells [4] is “detrimental to cell survival”. Also, in the assay with L929 cells [5], the “Change in mitochondrial membrane potential (depolarization)” value is given as “does not activate mitochondrial depolarization”. Further, the “Externalization of phosphatidylserine (Annexin V staining)” value (“Externalization of phosphatidylserine” for short) with L929 cells [6] was “promoted externalization of PS significantly above that induced by medium alone”. Besides, the “Activation of caspase 3” value with caspase 3 in L929 cells was “activated caspase 3 equivalently”. The “Protection of compound-treated cells by ascorbic acid pre-treatment (viability)” value in the assay on L929 cells [7] is reported as “partially protected from cell death”.

As for `O=C1C(c2ccccc2)=C(c2ccccc2)C(=O)c2ccccc21` [Compound 2, 2,3-diphenyl-1,4-napthoquinone], in assay [1], the Toxicity group result is “Group II Intermediate toxicity” and the IC50 amounted to 30 µg/mL. The IC50 in assay [1] (same value converted to µM) came out at 96.7 µM. Moreover, the “Formation” value in the assay on L929 cells [2] is on record as “induced levels of ROS equal to that induced by H2O2”. Moreover, in the assay on L929 cells [3], the “Protection of compound-treated cells by SOD (viability)” value is recorded as “did not protect”; the “Protection of compound-treated cells by combination of catalase and SOD (viability)” value was “did not protect the cells against compound 2 beyond that provided by catalase alone”; the “Protection of compound-treated cells by catalase (viability)” value is “partially protected”. The “Effect on cellular morphology” value in the assay with L929 cells [4] is “detrimental to cell survival”. The “Externalization of phosphatidylserine” value in the assay with L929 cells [6] is given as “promoted externalization of PS significantly above that induced by medium alone”. The “Activation of caspase 3” value in the assay with caspase 3 in L929 cells was “activated caspase 3 equivalently”. Further, the “Protection of compound-treated cells by ascorbic acid pre-treatment (viability)” value in the assay on L929 cells [7] was “partially protected from cell death”.

On to `CCCC1=CC(=O)c2ccccc2C1=O` [Compound 11, 2-propyl-1,4-napthoquinone], for which, in assay [1], the Toxicity group entry is given as “Group II Low toxicity” and the IC50 came to 60 µg/mL. Besides, the IC50 in assay [1] (same value converted to µM) is 300 µM. For the same compound, the “Externalization of phosphatidylserine” value with L929 cells [6] is given as “promoted externalization of PS significantly above that induced by medium alone”.

Turning to `O=C1C=CC(=O)c2c(O)cccc21` [Compound 7, 5-hydroxy-1,4-napthoquinone, reference compound], the results for the IC50 in assay [1] and in assay [1] (same value converted to µM) were < 1 µg/mL and < 5.7 µM, respectively. Also, the “Externalization of phosphatidylserine” value in the assay with L929 cells [6] is reported as “promoted externalization of PS significantly above that induced by medium alone”.

On to `CCC1=C(C)C(=O)c2ccccc2C1=O` [Compound 12, 2-ethyl-3-methyl-1,4-napthoquinone], for which the figures for the IC50 in assay [1] and in assay [1] (same value converted to µM) were 30 µg/mL and 150 µM, respectively.

As to `N#CC1=C(C#N)C(=O)C(Cl)=C(Cl)C1=O` [Compound 8, 2,3-dichloro-5,6-dicyano-1,4-benzoquinone], in assay [1], the Toxicity group result was “Group I No toxicity” and the “IC50 (concentration of compound that induces 50% inhibition of survival)” value was “No inhibition”.

Turning to `OO` [Compound H2O2, hydrogen peroxide], in the assay on L929 cells [4], the “Effect on cellular morphology” value was “rounded, granular, and vesiculated”.

Consider `CC1=C(C/C=C(\C)CCC[C@H](C)CCC[C@H](C)CCCC(C)C)C(=O)c2ccccc2C1=O` [Compound 9, 2-methyl-3-phytyl-1,4-naphthoquinone, reference compound], for which the “IC50 (concentration of compound that induces 50% inhibition of survival)” value in assay [1] was “No inhibition”. Besides, the “Formation” value in the assay on L929 cells [2] is on record as “induced ROS equal to that generated in non-treated cells”. In addition, the “Effect on cellular morphology” value in the assay with L929 cells [4] was “no effect on the cells”. In addition, the “Externalization of phosphatidylserine” value in the assay with L929 cells [6] was “promoted externalization of PS significantly above that induced by medium alone”.

In the case of `O=C1c2ccccc2C(=O)C2OC12` (stereo not drawn) [Compound 10, 1,4-napthoquinone epoxide], the results for the IC50 in assay [1] and in assay [1] (same value converted to µM) were 4 µg/mL and 23 µM, respectively.

On to `CC(C)=CCC1=C(O)C(=O)c2ccccc2C1=O` [Compound 4, 2-hydroxy-3-(3-methyl-2 butenil)-1, 4 naphthoquinone], for which the IC50 in assay [1] amounted to 15 µg/mL; in assay [1] (same value converted to µM), 62 µM. In addition, the “Externalization of phosphatidylserine” value with L929 cells [6] is listed as “promoted externalization of PS significantly above that induced by medium alone”.

On to `O=C1C=CC(=O)c2ccccc21` [Compound 6, 1,4-napthoquinone], for which the figures for the IC50 in assay [1] and in assay [1] (same value converted to µM) were < 1 µg/mL and < 6.3 µM, respectively. Moreover, in the assay on L929 cells [6], the “Externalization of phosphatidylserine” value is “promoted externalization of PS significantly above that induced by medium alone”. In addition, the “Activation of caspase 3” value in the assay with caspase 3 in L929 cells was “activated caspase 3 equivalently”.

Take `CC1=C(C)C(=O)c2ccccc2C1=O` [Compound 3, 2,3-dimethyl-1,4-napthoquinone]: the IC50 is 8 µg/mL in assay [1] and 42.9 µM in assay [1] (same value converted to µM). Besides, in the assay with L929 cells [6], the “Externalization of phosphatidylserine” value is given as “promoted externalization of PS significantly above that induced by medium alone”.
